# Columns and labels:
# [1] = system: intraperitoneal mast cells of the rats; experiment: Inhibitory activity on histamine release from passively sensitized rat mast cells; assay type: cell-based
# Experimental: Male Wistar rats weighing 300-350 g were passively sensitized, and intraperitoneal mast cells of the rats were employed for the test. Rat antiserum used in the passive sensitization was prepared in accordance with the method of Mota [Immunology, 7, p. 681 (1964)] and the method of Hamaoka [J. Immunology, 113, p. 958 (1974)]. Male Wistar rats (weighing 200-250 g) each were injected ovalbumin (10 mg/kg) in a volume of 5 ml/kg intramuscularly on both thighs and simultaneously 2×10^10 cells of killed Bordetella pertussis were intraperitoneally administered to immunize the animal. Blood was drawn from the animal under ether anesthesia via the abdominal aorta on day 12 of the initial sensitization,from which antiserum was separated. The antiserum was lyophilized and stored at -20° C. Titer of the antiserum was assayed by the 48-hour rat PCA reaction. […] The anti-albumin IgE serum of the rat was two fold diluted, and 1 ml of the diluted serum was intraperitoneally administered to sensitize the animal. The rat was killed by blooding 48 hours after the sensitization, and 15 ml of a phosphate buffered saline (NaCl 8 g, KCl 0.2 g, Na2 HPO4.12H2 O 2.88 g, KH2 PO4 0.2 g, EDTA.2Na 0.2 g and bovine serum albumin 1 g, dissolved in purified water to make 1 liter, pH 7.4 (called PBS(-) hereinbelow) was intraperitoneally injected. The rat was then given light abdominal massage for about 2 min. and subjected to laparotomy to collect cells in the abdominal cavity. The cell suspension was centrifuged (1,000 rpm, 10 min.) and then resuspended in PBS(-). The PBS(-) suspension was overlayered on gum arabic density (specific gravity 1.075) followed by centrifugal separation (2,500 rpm, 10 min.). Deposited cells were washed with PBS(-) and suspended in fresh PBS(+)[a solution in which the EDTA 2Na in PBS(-) is replaced by 0.1 g of CaCl2, called PBS(+)] and adjusted to 1×10^5 cells/ml. The cell suspension was divided into silicone-treated test tubes in a volume of 0.8 ml/tube, which were then preincubated at 37° C. for 10 min. In the cell suspension-containing test tube was placed 0.1 ml of a test solution from various solutions diluted with PBS(+) followed by incubation at 37° C. for 15 min. To the test tube was then added 0.1 ml of a mixed solution of ovalbumin antigen (final concentration 1 mg/ml) and phosphatidyl-L-serine (final concentration 100 μm/ml) followed by incubation for additional 15 min. to release histamine. For cromoglycate, one of the comparative drugs, the drug was added 30 sec. prior to the addition of the antigen, and incubation was then made for additional 15 min. The reaction was terminated by addition of 1 ml of ice-cooled PBS(+), and the reaction mixture was centrifuged at 2,500 rpm for 10 min. To 2 ml of the supernatant was added 1 ml of a 4% solution of perchloric acid, and the mixture was assayed for free histamine. For the assay of total histamine, a sample was prepared by placing 0.8 ml of a suspension of untreated mast cells in boiling water for 10 min. followed by addition of 4% perchloric acid.
# Amount of histamine in the sample was assayed by fluorimetry, and percent histamine release (%) was calculated by the equation [formula]
# [2] = system: thoracic aorta of male rabbits contracted with potassium chloride; experiment: Vasodilating action on aortic spiral strip contracted with potassium chloride; parameters: species or system rabbit; settings: potassium chloride contraction
# Experimental: (§1) The thoracic aorta of male rabbits weighing 2.5-3 kg was excised and aortic specimens of spiral strip 25-30 mm in length were prepared. […] The specimen was cumulatively administered with H-Asp-Gly-Lys-OH, H Ser-Asp-Gly-Lys-OH, or H-Asp-Ser-Asp-Gly-Lys-OH or H-Ala-Asp-Ser-Asp-Gly-Lys-OH, and relaxation reaction of the blood vessel was observed. As comparative drug were employed nitroprusside (sodium salt) and verapamil.
# [3] = system: thoracic aorta of male rabbits contracted with norepinephrine; experiment: Vasodilating action on aortic spiral strip contracted with norepinephrine; parameters: species or system rabbit; settings: norepinephrine contraction
# Experimental: as §1
# [4] = system: lymphocytes (mononuclear cells from blood of a healthy adult); experiment: Blast formation of lymphocytes stimulated with various lectins (3H-thymidine uptake); assay type: cell-based, human (healthy adult)
# Experimental: Mononuclear cells were collected by the density centrifugal method from blood of a healthy adult drawn in the presence of heparin and suspended in an RPMI-1640 culture medium (manufactured by Gibco) containing 10% by volume of bovine fetus serum (called FBS, manufactured by Dainihon Seiyaku). The suspension, adjusted to a concentration of 1×10^6 cells/ml, was divided into a 96-well Falcon microplate (manufactured by Becton Dickinson) in a volume of 100 μl/well. Then, a lectin, 1 μg/ml of PHA (phytohemagglutinin), 10 μg/ml of Con-A (concanavalin A) or 15 μg/ml of PWM (pokeweed mitogen) and one of the captioned peptides at a predetermined concentration were added followed by addition of a 10% FBS containing RPMI-1640 medium to a final liquid volume of 200 μl. Cultivation was made in a 5% by volume CO2 incubator at 37° C. for 72 hours, and 24 hours before completion of the cultivation 5 μCi of ^3 H-thymidine was added. The cells were recovered by a cell harvester (manufactured by Bio-Lab), and uptake of the ^3 H-thymidine was measured by a scintillation counter. Results of the measurement are shown in Table 3-Table 6 wherein figures indicate mean count (cpm)±standard error.
# [5] = system: IL-1; experiment: Productivity of humoral factors by lymphocytes: IL-1; assay type: cell-based, human (healthy adult); settings: for IL-1: cultivation for a week, control 7.1
# Experimental: (§2) Mononuclear cells separated by the density centrifugal method from blood of a healthy adult drawn in the presence of heparin were suspended in an RPMI-1640 culture medium containing 10% by volume of FBS. The suspension was divided into culture tubes (Falcon 2054) each at a concentration of 1×10^6 cells/ml, to which the captioned peptides were respectively added. Cultivation was made in an incubator for a week. After completion of the cultivation, the culture was centrifuged (1,500 rpm, 10 min.), and the supernatant collected and assayed for humoral factors. Interleukin 1 (IL-1) and tumor-nectrotizing factors were measured, respectively by a IL-1 radioimmunoassay kit (manufactured by Amersham International) and a TNF radioimmunoassay kit (manufactured by Medgenix). Measurement of interleukin 6 (IL-6) was made by the enzyme immunoassay method (ELISA) using IL-6 antibody (manufactured by Genzyme). Results of the measurements are shown in Table 7 wherein figures represent mean value±standard error.
# [6] = system: IL-6; experiment: Productivity of humoral factors by lymphocytes: IL-6; assay type: cell-based, human (healthy adult); settings: for IL-6: cultivation for a week, control 270
# Experimental: as §2
# [7] = system: TNF; experiment: Productivity of humoral factors by lymphocytes: TNF; assay type: cell-based, human (healthy adult); settings: for TNF: cultivation for a week, control 2,020
# Experimental: as §2
substance,measurement,setting,value
H-Asp-Gly-Lys-OH [DGK],inhibitory activity on histamine release,"[1]; at a concentration of 10^-5 M or higher, FIG. 5-7",clear inhibitory activity
same,potency of histamine release inhibition compared with H-Asp-Ser-Asp-Pro-Arg-OH,[1]; versus comparative drug H-Asp-Ser-Asp-Pro-Arg-OH,higher
same,potency of histamine release inhibition compared with cromoglycate,[1]; versus cromoglycate,nearly equal to or higher
same,Percent relaxation,[2]; compound 10^-4 M,11.2%
same,Percent relaxation,[2]; compound 10^-5 M,5.6%
same,Percent relaxation,[2]; compound 10^-6 M,0%
same,Percent relaxation,[2]; compound 10^-7 M,0%
same,Percent relaxation,[2]; compound 10^-8 M,0%
same,Percent relaxation,[3]; compound 10^-4 M,40.3%
same,Percent relaxation,[3]; compound 10^-5 M,9.3%
same,Percent relaxation,[3]; compound 10^-6 M,6.6%
same,Percent relaxation,[3]; compound 10^-7 M,0%
same,Percent relaxation,[3]; compound 10^-8 M,0%
same,Uptake of 3H-thymidine by lymphocytes,"[4]; Con-A (10 μg/ml), peptide 10^-6 M, control 37,800","16,700 cpm"
same,Uptake of 3H-thymidine by lymphocytes,"[4]; Con-A (10 μg/ml), peptide 10^-8 M, control 37,800","20,000 cpm"
same,Uptake of 3H-thymidine by lymphocytes,"[4]; PHA (1 μg/ml), peptide 10^-6 M, control 69,600","62,500 cpm"
same,Uptake of 3H-thymidine by lymphocytes,"[4]; PHA (1 μg/ml), peptide 10^-8 M, control 69,600","62,700 cpm"
same,Uptake of 3H-thymidine by lymphocytes,"[4]; PWM (15 μg/ml), peptide 10^-6 M, control 13,600","9,590 cpm"
same,Uptake of 3H-thymidine by lymphocytes,"[4]; PWM (15 μg/ml), peptide 10^-8 M, control 13,600","11,500 cpm"
same,uptake of 3H-thymine by the lymphocytes stimulated with a lectin,"[4]; lectin-stimulated, particularly Con-A, summary of Tables 3-6",strongly inhibit
same,Uptake of 3H-thymidine by lymphocytes,"[4]; mitogen None, peptide 10^-6 M, control 1,090",925 cpm
same,Uptake of 3H-thymidine by lymphocytes,"[4]; mitogen None, peptide 10^-8 M, control 1,090","1,120 cpm"
same,influence upon uptake of 3H-thymine by lymphocytes in the absence of a mitogen,"[4]; no mitogen, summary of Tables 3-6",little influence
same,IL-1,[5]; additive 10^-6 M,9.5 fM/ml
same,IL-1,[5]; additive 10^-8 M,7.1 fM/ml
same,production of IL-1,[5]; summary of Table 7,promote production
same,IL-6,[6]; additive 10^-6 M,440 U/ml
same,IL-6,[6]; additive 10^-8 M,400 U/ml
same,production of IL-6,[6]; summary of Table 7,promote production
same,TNF,[7]; additive 10^-6 M,"4,730 pg/ml"
same,TNF,[7]; additive 10^-8 M,"4,110 pg/ml"
same,production of TNF,[7]; summary of Table 7,promote production

# From US5118669A, “Peptides and intermediates therefor useful as antiallergic agents, vasodilators and immunoregulators” (Hitachi Chemical Co., Ltd., priority 1989, dated 1992)
